As usually defined, the IC50 is the concentration needed to halve the response being measured.

Consider 26 compounds from patent publication US20090247559A1 (Exelixis, Inc., priority 2007, published 2009).

Where two headings read alike, the source gives them in different places.

Experiment [1] concerns the target CK2 (Homo sapiens, UniProt P68400). Put plainly: CK2 inhibition, biochemical chemiluminescence holoenzyme assay (Kinase Glo, IC50 determination). To be noted: Table 1 activity class; symbol given only if active; read-out: CK2 IC50 (Activity C). The gist of the method: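 Holoenzyme CK2 assay; compounds pre-incubated with substrate and enzyme, then reacted 150 min at 24-27° C. Remaining ATP measured as luminescence with Kinase Glo, and IC50 derived from the signal.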
In general terms: Kinase-Glo measures the ATP left after a reaction by luminescence.

The target of experiment [2] is CDC7 (Homo sapiens, UniProt O00311). Put plainly: CDC7 inhibition, biochemical chemiluminescence assay (Kinase Glo, IC50 determination). How it is done:
Characterization of CDC7 Inhibition in a Biochemical Chemiluminesence Assay (IC50 Determination):
The IC50 evaluation of compounds against the CDC7 enzyme was performed in a Chemiluminesence assay utilizing a Greiner 384-well white binding plate format. […] Upon addition of 10 μL of CDC-7 (GB) to the designated well plates and subsequent incubation for ten minutes at ambient temperature, 10 μL of ATP mix in Tris Base was added. Following an incubation period of 90 minutes at ambient temperature (24-27° C.), 20 μL of Kinase Glo (Promega) was added to measure kinase activity by quantitating the amount of ATP remaining in solution. The luminescence was measured following a Luciferase Protocol on either EnVision or Victor plate readers.

In experiment [3] the target is PIM (PIM-1, PIM-2, and/or PIM-3). Put plainly: PIM-1, PIM-2 and PIM-3 inhibition, biochemical chemiluminescence assays (Kinase Glo, IC50 determination). The note with it: Table 1 activity class; PIM refers to PIM-1, PIM-2, and/or PIM-3; read-out: PIM IC50 (Activity B).
The mark [4] stands for this setting: Table 1 activity class, symbol given only if active, read-out: CDC7 IC50 (Activity A).
The mark [5] stands for this setting: compounds in Table 1, read-out: CDC7 IC50 value.

Sequence of CDC7 (O00311 whole entry): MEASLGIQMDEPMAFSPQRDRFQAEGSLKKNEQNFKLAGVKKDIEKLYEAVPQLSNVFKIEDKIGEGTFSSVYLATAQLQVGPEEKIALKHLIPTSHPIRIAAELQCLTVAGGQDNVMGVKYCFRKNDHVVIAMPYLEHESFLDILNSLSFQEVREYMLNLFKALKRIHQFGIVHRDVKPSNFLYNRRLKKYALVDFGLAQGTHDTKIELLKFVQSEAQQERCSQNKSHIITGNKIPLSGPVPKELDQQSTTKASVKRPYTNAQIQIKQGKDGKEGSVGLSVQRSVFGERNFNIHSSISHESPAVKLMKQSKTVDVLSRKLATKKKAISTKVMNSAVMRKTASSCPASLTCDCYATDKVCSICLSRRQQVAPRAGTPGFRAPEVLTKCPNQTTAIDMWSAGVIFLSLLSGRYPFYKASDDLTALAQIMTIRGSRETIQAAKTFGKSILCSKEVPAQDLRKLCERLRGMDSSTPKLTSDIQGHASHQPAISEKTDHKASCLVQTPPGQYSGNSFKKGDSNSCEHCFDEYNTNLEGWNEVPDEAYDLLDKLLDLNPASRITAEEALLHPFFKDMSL
Sequence of CDC7 (Q9UBU7 whole entry partner): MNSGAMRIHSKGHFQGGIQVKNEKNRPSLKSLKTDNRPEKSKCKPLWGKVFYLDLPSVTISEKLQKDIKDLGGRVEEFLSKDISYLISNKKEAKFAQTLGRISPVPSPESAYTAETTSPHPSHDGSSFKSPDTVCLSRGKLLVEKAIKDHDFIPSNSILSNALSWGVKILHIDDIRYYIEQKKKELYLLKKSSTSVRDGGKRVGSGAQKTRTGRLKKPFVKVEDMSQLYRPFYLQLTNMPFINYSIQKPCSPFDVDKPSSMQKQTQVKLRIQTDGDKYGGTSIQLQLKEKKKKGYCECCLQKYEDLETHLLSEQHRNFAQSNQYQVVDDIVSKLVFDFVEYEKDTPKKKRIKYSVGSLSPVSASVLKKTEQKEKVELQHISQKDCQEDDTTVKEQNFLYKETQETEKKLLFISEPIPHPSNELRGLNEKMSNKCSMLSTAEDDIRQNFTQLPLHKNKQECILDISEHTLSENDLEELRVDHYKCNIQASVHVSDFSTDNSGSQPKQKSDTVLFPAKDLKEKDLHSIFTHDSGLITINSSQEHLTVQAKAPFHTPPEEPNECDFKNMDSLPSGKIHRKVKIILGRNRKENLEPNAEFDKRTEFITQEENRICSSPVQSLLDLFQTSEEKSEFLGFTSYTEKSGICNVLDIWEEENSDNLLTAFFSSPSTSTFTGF
Sequence of CK2 (P68400 whole entry): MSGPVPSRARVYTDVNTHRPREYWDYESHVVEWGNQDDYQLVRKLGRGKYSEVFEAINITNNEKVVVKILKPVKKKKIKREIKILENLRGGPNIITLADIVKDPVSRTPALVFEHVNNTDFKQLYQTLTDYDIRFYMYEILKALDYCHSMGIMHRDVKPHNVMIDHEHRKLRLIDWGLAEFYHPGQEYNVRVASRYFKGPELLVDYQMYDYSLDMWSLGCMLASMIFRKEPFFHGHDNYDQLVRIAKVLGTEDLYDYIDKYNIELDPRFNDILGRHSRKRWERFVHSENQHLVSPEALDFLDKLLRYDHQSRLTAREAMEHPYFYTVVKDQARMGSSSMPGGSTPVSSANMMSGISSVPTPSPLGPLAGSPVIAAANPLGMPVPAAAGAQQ
Sequence of CK2 (P67870 whole entry partner): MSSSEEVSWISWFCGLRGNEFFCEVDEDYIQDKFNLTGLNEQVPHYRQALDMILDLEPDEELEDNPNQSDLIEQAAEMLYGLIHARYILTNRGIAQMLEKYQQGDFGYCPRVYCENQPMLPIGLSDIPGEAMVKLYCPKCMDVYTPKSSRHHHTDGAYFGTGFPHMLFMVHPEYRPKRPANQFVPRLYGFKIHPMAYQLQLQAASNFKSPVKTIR

`Cc1ccccc1-c1nc2c(oc3ccc(Br)cc32)c(=O)[nH]1` [Compound 60, 8-bromo-2-(2-methylphenyl)[1]benzofuro[3,2-d]pyrimidin-4(3H)-one]: the IC50 in experiment [1], in experiment [2] (setting [4]) and in experiment [3] was less than 10 µM each time.
For `O=c1[nH]c(-c2nccs2)nc2c1oc1ccc(Br)cc12` [Compound 86, 8-bromo-2-(1,3-thiazol-2-yl)[1]benzofuro[3,2-d]pyrimidin-4(3H)-one], the IC50 in experiment [1], in experiment [2] (setting [4]) and in experiment [3] was less than 10 µM each time.
For `Cc1nccn1Cc1nc2c(oc3ccc(Br)cc32)c(=O)[nH]1` [Compound 100, 8-bromo-2-[(2-methyl-1H-imidazol-1-yl)methyl][1]benzofuro[3,2-d]pyrimidin-4(3H)-one], the IC50 in experiment [1], in experiment [2] (setting [4]) and in experiment [3] was less than 10 µM each time.
In the case of `O=C(O)C1CCN(Cc2nc3c(oc4ccc(Br)cc43)c(=O)[nH]2)C1` (stereo not drawn) [Compound 103, 1-[(8-bromo-4-oxo-3,4-dihydro[1]benzofuro[3,2-d]pyrimidin-2-yl)methyl]pyrrolidine-3-carboxylic acid], the IC50 is less than 10 µM in experiment [1], less than 10 µM in experiment [2] (setting [4]), less than 0.1 µM in experiment [2] (setting [5]) and less than 10 µM in experiment [3].
For the compound `O=c1[nH]c(-c2c(Cl)cncc2Cl)nc2c1oc1ccc(Br)cc12` [Compound 107, 8-bromo-2-(3,5-dichloropyridin-4-yl)[1]benzofuro[3,2-d]pyrimidin-4(3H)-one], the IC50 in experiment [1], in experiment [2] (setting [4]) and in experiment [3] was less than 10 µM in each case.
`O=c1[nH]c(CN2CCC(NCC3CCNCC3)C2)nc2c1oc1ccc(Br)cc12` (stereo not drawn) [Compound 110, 8-bromo-2-({3-[(piperidin-4-ylmethyl)amino]pyrrolidin-1-yl}methyl)[1]benzofuro[3,2-d]pyrimidin-4(3H)-one]: the IC50 in experiment [1], in experiment [2] (setting [4]) and in experiment [3] was less than 10 µM in each case.
For the compound `CN1CCN(c2ccc(CNCCc3nc4c(oc5ccc(Br)cc54)c(=O)[nH]3)cc2)CC1` [Compound 111, 8-bromo-2-[2-({[4-(4-methylpiperazin-1-yl)phenyl]methyl}amino)ethyl][1]benzofuro[3,2-d]pyrimidin-4(3H)-one], the IC50 in experiment [1], in experiment [2] (setting [4]) and in experiment [3] was less than 10 µM in each case.
For `O=c1[nH]c(-c2ccncc2Cl)nc2c1oc1ccc(Br)cc12` [Compound 112, 8-bromo-2-(3-chloropyridin-4-yl)[1]benzofuro[3,2-d]pyrimidin-4(3H)-one], the IC50 in experiment [1], in experiment [2] (setting [4]) and in experiment [3] was less than 10 µM in each case.
Consider `O=c1[nH]c(CN2CCN(CCn3ccnc3)CC2)nc2c1oc1ccc(Br)cc12` [Compound 113, 8-bromo-2-({4-[2-(1H-imidazol-1-yl)ethyl]piperazin-1-yl}methyl)[1]benzofuro[3,2-d]pyrimidin-4(3H)-one], for which the half-inhibitory concentration (IC50) in experiment [1], in experiment [2] (setting [4]) and in experiment [3] was less than 10 µM throughout.
Take `O=c1[nH]c(CN2CCC(F)(F)CC2)nc2c1oc1ccc(Br)cc12` [Compound 114, 8-bromo-2-[(4,4-difluoropiperidin-1-yl)methyl][1]benzofuro[3,2-d]pyrimidin-4(3H)-one]: the IC50 in experiment [1], in experiment [2] (setting [4]) and in experiment [3] was less than 10 µM in each case.
With `CN1CCN(c2nc3c(oc4ccc(Br)cc43)c(=O)[nH]2)CC1` [Compound 115, 8-bromo-2-(4-methylpiperazin-1-yl)[1]benzofuro[3,2-d]pyrimidin-4(3H)-one], the 50% inhibitory concentration (IC50) in experiment [1], in experiment [2] (setting [4]) and in experiment [3] was less than 10 µM in each case.
Turning to `O=c1[nH]c(-c2ccc(Br)cc2Cl)nc2c1oc1ccc(Br)cc12` [Compound 116, 8-bromo-2-(4-bromo-2-chlorophenyl)[1]benzofuro[3,2-d]pyrimidin-4(3H)-one], the IC50 in experiment [1], in experiment [2] (setting [4]) and in experiment [3] was less than 10 µM throughout.
Turning to `CNC1CCN(Cc2nc3c(oc4ccc(Br)cc43)c(=O)[nH]2)C1` (stereo not drawn) [Compound 118, 8-bromo-2-{[3-(methylamino)pyrrolidin-1-yl]methyl}[1]benzofuro[3,2-d]pyrimidin-4(3H)-one], the half-inhibitory concentration (IC50) in experiment [1], in experiment [2] (setting [4]) and in experiment [3] was less than 10 µM each time.
For the compound `O=c1[nH]c(CN2C[C@@H]3C[C@H]2CN3)nc2c1oc1ccc(Br)cc12` [Compound 119, 8-bromo-2-[(1S,4S)-2,5-diazabicyclo[2.2.1]hept-2-ylmethyl][1]benzofuro[3,2-d]pyrimidin-4(3H)-one], the IC50 in experiment [1] is less than 10 µM; in experiment [2] (CDC7 IC50 (Activity A), Table 1 activity class, symbol given only if active), less than 10 µM; in experiment [2] (CDC7 IC50 value, compounds in Table 1), less than 0.1 µM; in experiment [3], less than 10 µM.
Consider `CC(=O)Nc1ccc(-c2nc3c(oc4ccc(Br)cc43)c(=O)[nH]2)c(Cl)c1` [Compound 121, N-[4-(8-bromo-4-oxo-3,4-dihydro[1]benzofuro[3,2-d]pyrimidin-2-yl)-3-chlorophenyl]acetamide], for which the IC50 in experiment [1], in experiment [2] (setting [4]) and in experiment [3] was less than 10 µM each time.
Consider `Cc1n[nH]c2ccc(-c3nc4c(oc5ccc(Br)cc54)c(=O)[nH]3)cc12` [Compound 123, 8-bromo-2-(3-methyl-1H-indazol-5-yl)[1]benzofuro[3,2-d]pyrimidin-4(3H)-one], for which the IC50 in experiment [1], in experiment [2] (setting [4]) and in experiment [3] was less than 10 µM throughout.
Consider `COc1ccc2oc3c(=O)[nH]c(-c4ccc([N+](=O)[O-])cc4Cl)nc3c2c1` [Compound 124, 2-(2-chloro-4-nitrophenyl)-8-(methyloxy)[1]benzofuro[3,2-d]pyrimidin-4(3H)-one], for which the IC50 in experiment [1], in experiment [2] (setting [4]) and in experiment [3] was less than 10 µM throughout.
For `O=c1[nH]c(-c2cc([N+](=O)[O-])ccc2Cl)nc2c1oc1ccc(Br)cc12` [Compound 126, 8-bromo-2-(2-chloro-5-nitrophenyl)[1]benzofuro[3,2-d]pyrimidin-4(3H)-one], the IC50 in experiment [1], in experiment [2] (setting [4]) and in experiment [3] was less than 10 µM in each case.
As to `CN(C)CC(=O)Nc1ccc(-c2nc3c(oc4ccc(Br)cc43)c(=O)[nH]2)c(Cl)c1` [Compound 127, N-[4-(8-bromo-4-oxo-3,4-dihydro[1]benzofuro[3,2-d]pyrimidin-2-yl)-3-chlorophenyl]-N′2′,N′2′-dimethylglycinamide], the half-maximal inhibitory concentration (IC50) in experiment [1], in experiment [2] (setting [4]) and in experiment [3] was less than 10 µM in each case.
As for `CS(=O)(=O)c1ccc(-c2nc3c(oc4ccc(Br)cc43)c(=O)[nH]2)c(Cl)c1` [Compound 128, 8-bromo-2-[2-chloro-4-(methylsulfonyl)phenyl][1]benzofuro[3,2-d]pyrimidin-4(3H)-one], the IC50 is less than 10 µM in experiment [1], less than 10 µM in experiment [2] (setting [4]), less than 0.1 µM in experiment [2] (setting [5]) and less than 10 µM in experiment [3].
As to `CC(C)(CN1CCOCC1)NCc1nc2c(oc3ccc(Br)cc32)c(=O)[nH]1` [Compound 130, 8-bromo-2-{[(1,1-dimethyl-2-morpholin-4-ylethyl)amino]methyl}[1]benzofuro[3,2-d]pyrimidin-4(3H)-one], the IC50 in experiment [1], in experiment [2] (setting [4]) and in experiment [3] was less than 10 µM in each case.
On to `Nc1ccc(Cl)c(-c2nc3c(oc4ccc(Br)cc43)c(=O)[nH]2)c1` [Compound 134, 2-(5-amino-2-chlorophenyl)-8-bromo[1]benzofuro[3,2-d]pyrimidin-4(3H)-one], for which the IC50 in experiment [1], in experiment [2] (setting [4]) and in experiment [3] was less than 10 µM throughout.
Turning to `CN(C)CCC(=O)Nc1ccc(-c2nc3c(oc4ccc(Br)cc43)c(=O)[nH]2)c(Cl)c1` [Compound 135, N-[4-(8-bromo-4-oxo-3,4-dihydro[1]benzofuro[3,2-d]pyrimidin-2-yl)-3-chlorophenyl]-N′3′,N′3′-dimethyl-beta-alaninamide], the IC50 in experiment [1], in experiment [2] (setting [4]) and in experiment [3] was less than 10 µM throughout.
Turning to `COc1ccc2oc3c(=O)[nH]c(-c4ccc(NCC5CCNCC5)cc4Cl)nc3c2c1` [Compound 138, 2-{2-chloro-4-[(piperidin-4-ylmethyl)amino]phenyl}-8-(methyloxy)[1]benzofuro[3,2-d]pyrimidin-4(3H)-one], the IC50 in experiment [1], in experiment [2] (setting [4]) and in experiment [3] was less than 10 µM each time.
Consider `O=C(Nc1ccc(-c2nc3c(oc4ccc(Br)cc43)c(=O)[nH]2)c(Cl)c1)C1CCCNC1` (stereo not drawn) [Compound 140, N-[4-(8-bromo-4-oxo-3,4-dihydro[1]benzofuro[3,2-d]pyrimidin-2-yl)-3-chlorophenyl]piperidine-3-carboxamide], for which the IC50 in experiment [1], in experiment [2] (setting [4]) and in experiment [3] was less than 10 µM each time.
For the compound `O=c1[nH]c(CN2CCNCC2)nc2c1oc1ccc(Br)cc12` [Compound 141, 8-bromo-2-(piperazin-1-ylmethyl)[1]benzofuro[3,2-d]pyrimidin-4(3H)-one], the half-inhibitory concentration (IC50) in experiment [1], in experiment [2] (setting [4]) and in experiment [3] was less than 10 µM in each case.
